Test [1] concerns the target T1, CYP11B2 (Homo sapiens (Human), UniProt P19099). Briefly: G-402 cellular enzyme assay, human CYP11B2 (aldosterone release). Format: cell-based. To be noted: G-402 cells expressing human CYP11B2; 1 μM Deoxycorticosterone. The text has this:
(§1) Herein we identified the use of the G-402 cell line as a host cell to ectopically express (transiently or stably) enzymes of the CYP11 family. Specifically we developed stable G-402 cells expressing ectopically human CYP11B1, human CYP11B2, human CYP11A1, cynmolgus CYP11B1 or cynomolgus CYP11B2 enzyme activity. Importantly the identified cell line G-402 expresses co-factors (adrenodoxin and adrenodoxin reductase) important for the activity of the CYP11 family and no relevant enzyme activity of the CYP11 family (in comparison to H295R cells) was detected in these cells. Therefore the G-402 cell line is uniquely suited as a host cell for the ectopic expression of enzymes from the CYP11 family.
(§2) G-402 cells can be obtained from ATCC (CRL-1440) and were originally derived from a renal leiomyoblastoma.
(§3) The expression plasmids contains the ORF for either human/cyno CYP11B1 or CYP11B2 under the control of a suitable promoter (CMV-promoter) and a suitable resistance marker (neomycin). Using standard techniques the expression plasmid is transfected into G-402 cells and these cells are then selected for expressing the given resistance markers. Individual cell-clones are then selected and assessed for displaying the desired enzymatic activity using 11-Deoxycorticosterone (Cyp11B2) or 11-Deoxycortisol (Cyp11B1) as a substrate.
(§4) G-402 cells expressing CYP11 constructs were established as described above and maintained in McCoy's 5a Medium Modified, ATCC Catalog No. 30-2007 containing 10% FCS and 400 μg/ml G418 (Geneticin) at 37° C. under an atmosphere of 5% CO2/95% air. Cellular enzyme assays were performed in DMEM/F12 medium containing 2.5% charcoal treated FCS and appropriate concentration of substrate (0.3-10 uM 11-Deoxycorticosterone, 11-Deoxycortisol or Corticosterone). For assaying enzymatic activity, cells were plated onto 96 well plates and incubated for 16 h. An aliquot of the supernatant is then transferred and analyzed for the concentration of the expected product (Aldosterone for CYP11B2; Cortisol for CYP11B1). The concentrations of these steroids can be determined using HTRF assays from CisBio analyzing either Aldosterone or Cortisol.
(§5) Inhibition of the release of produced steroids can be used as a measure of the respective enzyme inhibition by test compounds added during the cellular enzyme assay. The dose dependent inhibition of enzymatic activity by a compound is calculated by means of plotting added inhibitor concentrations (x-axes) vs. measured steroid/product level (y-axes). The inhibition is then calculated by fitting the following 4-parameter sigmoidal function (Morgan-Mercer-Flodin (MMF) model) to the raw data points using the least squares method:
(§6) [formula] wherein, A is the maximum y value, B is the EC50 factor determined using XLFit, C is the minimum y value and D is the slope value.
(§7) EC50 values for compounds claimed herein were tested with the G402-based assay system described. Cyp11B2 enzyme activity was tested in presence of 1 μM Deoxycorticosterone and variable amounts of inhibitors; Cyp11B1 enzyme activity was tested in presence of 1 μM Deoxycortisol and variable amounts of inhibitors.

A further test has as its target human CYP11B1 (Homo sapiens (Human), UniProt P15538). Briefly: G-402 cellular enzyme assay, human CYP11B1 (cortisol release). Format: cell-based. As to conditions: G-402 cells expressing human CYP11B1; 1 μM Deoxycortisol.
Excerpt: as §1, §2, §3, §4, §5, §6, §7

The conditions of test [2]: cited from earlier work; for plasma aldosterone: FAD286: 4 weeks of treatment, spironolactone: 4 and 8 weeks of treatment; for cardiac and aortic medial hypertrophy / renal effects (albuminuria, azotemia, renovascular hypertrophy, glomerular injury, PAI-1 and osteopontin mRNA, tubulointerstitial fibrosis): angiotensin II and high salt treatment, rat; for angiotensin II and salt-stimulated PAI-1 mRNA expression: aorta and heart.

The conditions of test [3]: rats with experimental heart failure; cited from earlier work.
The target in test [4] is T1, CYP11B2. As to conditions: patients with primary aldosteronism, cited from earlier work.
Test [5] concerns CYP11B2. To be noted: patients with primary aldosteronism; cited from earlier work.

T1 sequence (P19099 25-503): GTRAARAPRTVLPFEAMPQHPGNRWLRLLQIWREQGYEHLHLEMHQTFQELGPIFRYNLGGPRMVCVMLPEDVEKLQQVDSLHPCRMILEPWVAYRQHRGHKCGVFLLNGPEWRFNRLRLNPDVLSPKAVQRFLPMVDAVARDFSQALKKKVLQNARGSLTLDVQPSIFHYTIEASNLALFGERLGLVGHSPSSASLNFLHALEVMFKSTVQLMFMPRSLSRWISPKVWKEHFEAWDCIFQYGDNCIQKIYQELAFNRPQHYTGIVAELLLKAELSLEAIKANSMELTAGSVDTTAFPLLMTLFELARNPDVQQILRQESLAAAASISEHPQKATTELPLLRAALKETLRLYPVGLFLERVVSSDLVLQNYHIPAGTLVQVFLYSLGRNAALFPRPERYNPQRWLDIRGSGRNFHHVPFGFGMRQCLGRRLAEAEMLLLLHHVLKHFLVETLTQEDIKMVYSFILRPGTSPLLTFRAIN
human CYP11B1, sequence (P15538 25-503): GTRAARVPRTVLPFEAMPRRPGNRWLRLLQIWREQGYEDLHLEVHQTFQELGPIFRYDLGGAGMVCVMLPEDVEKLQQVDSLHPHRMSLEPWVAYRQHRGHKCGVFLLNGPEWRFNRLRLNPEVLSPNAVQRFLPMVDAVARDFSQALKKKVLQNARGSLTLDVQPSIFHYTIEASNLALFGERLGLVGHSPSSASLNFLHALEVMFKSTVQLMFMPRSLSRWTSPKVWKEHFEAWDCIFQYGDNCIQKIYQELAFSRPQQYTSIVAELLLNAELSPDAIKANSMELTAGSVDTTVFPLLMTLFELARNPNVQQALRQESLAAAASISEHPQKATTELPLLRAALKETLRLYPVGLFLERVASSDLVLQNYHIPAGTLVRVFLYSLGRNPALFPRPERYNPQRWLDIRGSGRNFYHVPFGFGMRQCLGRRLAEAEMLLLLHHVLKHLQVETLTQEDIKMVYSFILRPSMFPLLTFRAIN

By EC50 is commonly meant the concentration at which the effect is half-maximal. Lower therefore signals an effect from little substance. As to `CC(=O)N1CCC(Cc2c[nH]nc2-c2ccc3c(c2)CCC(=O)N3C)CC1` [Example 16, 6-[4-[(1-Acetyl-4-piperidyl)methyl]-1H-pyrazol-3-yl]-1-methyl-3,4-dihydroquinolin-2-one], the EC50 on CYP11B2 [1] amounted to 28.3 pM; on human CYP11B1, 266 pM.

As for `CN1C(=O)CCc2cc(-c3n[nH]cc3CC3CCN(C(=O)c4cnn(C)c4)CC3)ccc21` [Example 17, 1-Methyl-6-[4-[[1-(1-methylpyrazole-4-carbonyl)-4-piperidyl]methyl]-1H-pyrazol-3-yl]-3,4-dihydroquinolin-2-one], a half-maximal effect on human CYP11B1 (EC50) was put at 1200 pM.

Regarding `CCS(=O)(=O)N1CCC(Cc2c[nH]nc2-c2ccc3c(c2)CCC(=O)N3C)CC1` [Example 18, 6-[4-[(1-Ethylsulfonyl-4-piperidyl)methyl]-1H-pyrazol-3-yl]-1-methyl-3,4-dihydroquinolin-2-one], the EC50 stood at 5.2 pM at CYP11B2 [1] and 216 pM at human CYP11B1.

With `CC(=O)N1CCC(Cc2c[nH]nc2-c2cc3c(cc2F)N(C)C(=O)CC3)CC1` [Example 19, 6-[4-[(1-Acetylpiperidin-4-yl)methyl]-1H-pyrazol-3-yl]-7-fluoro-1-methyl-3,4-dihydroquinolin-2-one], the concentration for a half-maximal effect (EC50) came out at 17.1 pM at CYP11B2 [1] and 416 pM at human CYP11B1.

In the case of `CN1C(=O)CCc2c1ccc(-c1n[nH]cc1CC1CCN(C(=O)c3cnn(C)c3)CC1)c2F` [Example 20, 5-Fluoro-1-methyl-6-[4-[[1-(1-methylpyrazole-4-carbonyl)piperidin-4-yl]methyl]-1H-pyrazol-3-yl]-3,4-dihydroquinolin-2-one], the response on human CYP11B1 was half-maximal at 723 pM (EC50).

As to `CC(=O)N1CCC(Cc2c[nH]nc2-c2ccc3c(c2F)CCC(=O)N3C)CC1` [Example 21, 6-[4-[(1-Acetyl-4-piperidyl)methyl]-1H-pyrazol-3-yl]-5-fluoro-1-methyl-3,4-dihydroquinolin-2-one], the EC50 on CYP11B2 [1] turned out to be 12 pM; at human CYP11B1, 447 pM.

`CCS(=O)(=O)N1CCC(Cc2cn[nH]c2-c2ccc3c(c2F)CCC(=O)N3C)CC1` [Example 22, 6-[4-[(1-Ethylsulfonylpiperidin-4-yl)methyl]-1H-pyrazol-3-yl]-5-fluoro-1-methyl-3,4-dihydroquinolin-2-one] came in with an EC50 on human CYP11B1 of 133 pM.

`CN1C(=O)CCc2c1ccc(-c1[nH]ncc1CC1CCN(C(=O)c3ncccc3Cl)CC1)c2Cl` [Example 28, 5-Chloro-6-[4-[[1-(3-chloropyridine-2-carbonyl)-4-piperidyl]methyl]-1H-pyrazol-3-yl]-1-methyl-3,4-dihydroquinolin-2-one]: the EC50 is 27.6 pM on CYP11B2 [1] and 2450 pM on human CYP11B1.

On to `CN1C(=O)CCc2c1ccc(-c1[nH]ncc1CC1CCN(C(=O)c3ccnn3C)CC1)c2Cl` [Example 29, 5-Chloro-1-methyl-6-[4-[[1-(2-methylpyrazole-3-carbonyl)-4-piperidyl]methyl]-1H-pyrazol-3-yl]-3,4-dihydroquinolin-2-one], for which the figures for the EC50 on CYP11B2 [1] and at human CYP11B1 were 16.4 pM and 3310 pM, respectively.

As for `CN1C(=O)CCc2c1ccc(-c1[nH]ncc1CC1CCN(C(=O)c3ccncc3Cl)CC1)c2Cl` [Example 30, 5-Chloro-6-[4-[[1-(3-chloropyridine-4-carbonyl)-4-piperidyl]methyl]-1H-pyrazol-3-yl]-1-methyl-3,4-dihydroquinolin-2-one], the values for the EC50 on CYP11B2 [1] and at human CYP11B1 were 19.2 pM and 2470 pM, respectively.

For `CN1C(=O)CCc2cc(-c3[nH]ncc3CC3CCN(C(=O)c4cncn4C)CC3)ccc21` [Example 31, 1-Methyl-6-[4-[[1-(3-methylimidazole-4-carbonyl)-4-piperidyl]methyl]-1H-pyrazol-3-yl]-3,4-dihydroquinolin-2-one], the EC50 was determined as 7 pM on CYP11B2 [1] and 1120 pM at human CYP11B1.

As to `CN1C(=O)CCc2cc(-c3[nH]ncc3CC3CCN(C(=O)c4nccn4C)CC3)ccc21` [Example 32, 1-Methyl-6-[4-[[1-(1-methylimidazole-2-carbonyl)-4-piperidyl]methyl]-1H-pyrazol-3-yl]-3,4-dihydroquinolin-2-one], the EC50 at CYP11B2 [1] turned out to be 29.4 pM; at human CYP11B1 it was 351 pM.

For `CN1C(=O)CCc2cc(-c3[nH]ncc3CC3CCN(C(=O)c4ncccc4Cl)CC3)ccc21` [Example 34, 6-[4-[[1-(3-Chloropyridine-2-carbonyl)-4-piperidyl]methyl]-1H-pyrazol-3-yl]-1-methyl-3,4-dihydroquinolin-2-one], the values for the EC50 on CYP11B2 [1] and at human CYP11B1 were 14.5 pM and 547 pM, respectively.

Regarding `CCS(=O)(=O)N1CC2(CC(Cc3c[nH]nc3-c3ccc4c(c3Cl)CCC(=O)N4C)C2)C1` [Example 39, 5-Chloro-6-[4-[(2-ethylsulfonyl-2-azaspiro[3.3]heptan-6-yl)methyl]-1H-pyrazol-3-yl]-1-methyl-3,4-dihydroquinolin-2-one], the EC50 at CYP11B2 [1] was found to be 5.9 pM; at human CYP11B1, 215 pM.

Consider `CC(=O)N1CC2(CC(Cc3c[nH]nc3-c3ccc4c(c3Cl)CCC(=O)N4C)C2)C1` [Example 40, 6-[4-[(2-Acetyl-2-azaspiro[3.3]heptan-6-yl)methyl]-1H-pyrazol-3-yl]-5-chloro-1-methyl-3,4-dihydroquinolin-2-one], for which the EC50 at CYP11B2 [1] turned out to be 49.5 pM; on human CYP11B1, 2470 pM.

As for `CN1C(=O)CCc2c1ccc(-c1n[nH]cc1CC1CC3(C1)CN(C(=O)c1cnn(C)c1)C3)c2Cl` [Example 41, 5-Chloro-1-methyl-6-[4-[[2-(1-methylpyrazole-4-carbonyl)-2-azaspiro[3.3]heptan-6-yl]methyl]-1H-pyrazol-3-yl]-3,4-dihydroquinolin-2-one], the EC50 at CYP11B2 [1] amounted to 37.7 pM; at human CYP11B1, 7290 pM.

On to `N#Cc1ccc(C2CCCc3cncn32)cc1` (stereo not shown) [FAD286], for which, in test [2], the plasma aldosterone result is “reduced”; the “cardiac and aortic medial hypertrophy” value is listed as “attenuated”; the “renal effects (albuminuria, azotemia, renovascular hypertrophy, glomerular injury, PAI-1 and osteopontin mRNA, tubulointerstitial fibrosis)” value is reported as “prevented these renal effects”; the “angiotensin II and salt-stimulated PAI-1 mRNA expression” value is recorded as “not”. Further, in test [3], the “blood pressure and cardiovascular function and structure” value was “improved”; the “kidney function and morphology” value is recorded as “improve”.

Take `N#Cc1ccc([C@H]2CCc3cncn32)c(F)c1` [LCI699]: on CYP11B2 [4] (oral), the circulating aldosterone levels result was “significantly lower”. Further, at CYP11B2 [4], the blood pressure result is given as “mildly decreased” and the hypokalemia entry is recorded as “corrected”. The “selectivity (effects on the glucocorticoid axis, cortisol synthesis)” value in the test with CYP11B2 [5] is recorded as “poor selectivity”.

In the case of `CC(=O)S[C@@H]1CC2=CC(=O)CC[C@]2(C)[C@H]2CC[C@@]3(C)[C@@H](CC[C@@]34CCC(=O)O4)[C@H]12` [spironolactone], in test [2], the plasma aldosterone entry is reported as “increased”; the “cardiac and aortic medial hypertrophy” value was “attenuated”; the “renal effects (albuminuria, azotemia, renovascular hypertrophy, glomerular injury, PAI-1 and osteopontin mRNA, tubulointerstitial fibrosis)” value was “prevented these renal effects”; the “angiotensin II and salt-stimulated PAI-1 mRNA expression” value is “enhanced”.

Source of the values: US9796702B2, “Dihydroquinoline pyrazolyl compounds” (Hoffmann-La Roche Inc., priority 2015, dated 2017).
